The structures appear in SMILES notation. Read-outs that look alike come from different tables or passages of the source.

Here are results for three molecules from patent US20090029954A1, “PROGESTERONE-RECEPTOR ANTAGONIST FOR USE IN BRCA ALONE OR AS COMBINATION WITH ANTIESTROGEN” (priority 2007, published 2009).

The test system of data set [1] is mammary tumors in Brca1/p53-deficient model. Particulars: mice with BRCA1- or BRCA2 inactivated in mammary glands; Poole et al., Science 2006; cited from earlier work.
The conditions of data set [2]: administered orally; cited from earlier work.
Data set [3] addresses T1, progesterone receptor (Homo sapiens, UniProt P06401).
T1 sequence (P06401 1-933): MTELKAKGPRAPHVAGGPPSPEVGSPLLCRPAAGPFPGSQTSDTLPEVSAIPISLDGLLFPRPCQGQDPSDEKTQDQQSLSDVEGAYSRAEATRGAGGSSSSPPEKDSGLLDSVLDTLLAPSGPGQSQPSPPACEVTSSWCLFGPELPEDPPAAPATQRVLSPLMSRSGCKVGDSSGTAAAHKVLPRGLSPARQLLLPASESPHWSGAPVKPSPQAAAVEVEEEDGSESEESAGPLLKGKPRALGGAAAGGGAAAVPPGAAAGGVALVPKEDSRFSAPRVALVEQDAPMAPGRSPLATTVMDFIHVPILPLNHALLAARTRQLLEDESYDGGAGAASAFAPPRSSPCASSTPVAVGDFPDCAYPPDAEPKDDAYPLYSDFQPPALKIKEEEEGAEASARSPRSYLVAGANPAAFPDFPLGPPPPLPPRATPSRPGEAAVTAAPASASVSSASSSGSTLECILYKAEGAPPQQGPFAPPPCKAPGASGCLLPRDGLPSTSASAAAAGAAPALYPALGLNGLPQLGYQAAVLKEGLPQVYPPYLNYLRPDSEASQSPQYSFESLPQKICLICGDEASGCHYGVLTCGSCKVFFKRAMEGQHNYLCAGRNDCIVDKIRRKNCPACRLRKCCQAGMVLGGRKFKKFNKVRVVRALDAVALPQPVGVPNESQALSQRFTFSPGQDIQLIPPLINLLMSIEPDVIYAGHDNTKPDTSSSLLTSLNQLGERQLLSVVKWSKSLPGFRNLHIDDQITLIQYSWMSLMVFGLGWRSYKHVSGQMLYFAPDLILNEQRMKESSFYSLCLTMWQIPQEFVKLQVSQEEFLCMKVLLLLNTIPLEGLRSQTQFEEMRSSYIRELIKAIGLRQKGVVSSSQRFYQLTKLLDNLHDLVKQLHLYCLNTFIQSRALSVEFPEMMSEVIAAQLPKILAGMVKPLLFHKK
Kind of data set: Progesterone receptor protein expression/stability after siRNA BRCA1 knock down (Example 1). The data set is classed as cell-based. On the procedure:
(§1) MCF-10 mammary cells and T47D breast cancer cells obtained from ATCC were treated with siRNA knocking down the BRCA1 and BRCA2 gene.
(§2) Cell growth in comparison to untransfected and mock transfected cells was compared. In a second step cells were stimulated either with progesterone and/or with estrogens. […] The effects on progesteron receptor protein expression were further investigated.

Data set [4] concerns the target T1, progesterone receptor. Kind of data set: Progesterone receptor protein expression/stability after siRNA BRCA1 knock down (Example 3). The data set is classed as cell-based. On the procedure:
(§3) MCF-10 mammary cells obtained from ATCC were treated with siRNA knocking down the BRCA1 and BRCA2 gene.
as §2

For data set [5], the target named is T1, progesterone receptor. The following applies: Fuhrmann et al., J. Med. Chem. 2000; cited from earlier work.
For data set [6], the system named is MCF-10 mammary cells and T47D breast cancer cells with BRCA1 and BRCA2 knock down. As to the kind of experiment: Growth of breast cells with siRNA BRCA1/BRCA2 knock down (Example 1). The data set is classed as cell-based. On the procedure: as §1, §2
For another data set, the system named is tumor cells. Kind of data set: Apoptosis of tumor cells.
In data set [7] the target is T1, progesterone receptor. As to the kind of experiment: Endocrine profile of the progesterone-receptor antagonist.
In data set [8] the test system is MCF-10 mammary cells with BRCA1 and BRCA2 knock down. Kind of data set: Growth of MCF-10 cells with siRNA BRCA1/BRCA2 knock down (Example 3). Format: cell-based. The following applies: co-treatment; MCF-10 siRNA knock down cells stimulated with progesterone and/or estrogens. On the procedure:
as §3, §2

The test system of data set [9] is BRCA1-, respectively BRCA2-mediated mammary carcinogenesis. As to the kind of experiment: Mammary tumor formation in transgenic mice with breast-specific inactivation of p53 and BRCA1/BRCA2 (Example 2). Format: in vivo. Particulars: mice monitored weekly for tumor formation; placebo group median tumor latency 6.6 months. From the text: To address the specific roles of progesterone receptors in BRCA1- and BRCA2-mediated tumorigenesis, transgenic mice with an organ specific inactivation of p53 and BRCA1, respectively BRCA2 in the breast tissue have been studied. Inactivation of both BRCA1, respectively BRCA2 and p53 or c-myc genes in the mouse mammary gland mimics the majority of human BRCA1-associated tumors, which also harbor p53 mutations.
Because progesterone is a potent mitogen for BRCA1, respectively BRCA2 p53 or c-myc Crec mammary epithelial cells, it was tested whether blockade of the progesterone receptor activity by the progesterone receptor antagonist 11β-(4-acetylphenyl)-17β-hydroxy-17α-(1,1,2,2,2-pentafluoroethyl)-estra-4,9-dien-3-one could prevent or delay mammary carcinogenesis. Mice were treated with a placebo or with 11β-(4-acetylphenyl)-17β-hydroxy-17α-(1,1,2,2,2-pentafluoroethyl)-estra-4,9-dien-3-one. The mice were monitored weekly for tumor formation. The median tumor latency of was 6.6 months for the placebo control group with all mice developing palpable tumors.

A short description of the next data set: Bioavailability. The following applies: compared to ICI 182,780. Format: in vivo.

Consider `CC#C[C@]1(O)CC[C@H]2[C@@H]3CCC4=CC(=O)CCC4=C3[C@@H](c3ccc(N(C)C)cc3)C[C@@]21C` [mifepristone], for which the “development of mammary tumors” value in data set [1] was “blocks the development of mammary tumors”. In [2], the bioavailability result is “poor bioavailability”.

For the molecule `CC(=O)c1ccc(C2C[C@@]3(C)[C@@H](CC[C@@]3(O)C(F)(F)C(F)(F)F)[C@@H]3CCC4=CC(=O)CCC4=C23)cc1` (stereo partly drawn) [11β-(4-acetylphenyl)-17β-hydroxy-17α-(1,1,2,2,2-pentafluoroethyl)-estra-4,9-dien-3-one], the “increased stability of progesterone receptor after BRCA1 knock down” value at progesterone receptor [3] and on progesterone receptor [4] was “could be antagonized” each time. At progesterone receptor [5], the antiprogestagenic activity entry is given as “high antiprogestagenic activity”. In addition, the other endocrinological effects result at progesterone receptor [5] was “little or no other endocrinological effects”. Also, the “inhibition of the growth of BRCA1 knock down cells” value in [6] (Example 1) was “potent inhibition”. Moreover, the “antagonism of the effects of BRCA1 knock down (increased proliferation in the presence of progesterone)” value in data set [6] (co-treatment, siRNA knock down cells stimulated with progesterone and/or estrogens) was “able to antagonize the effects of BRCA1 knock down”; in [8], “able to antagonize the effects of BRCA1 knock down”. Further, the “apoptosis of tumor cells” value in the data set with tumor cells is “increased apoptosis of tumor cells”. For the same molecule, at progesterone receptor [7], the “endocrine side effects (androgen, estrogen or antiglucocorticoid activity)” value is given as “only very weak or no endocrine side effects”. The palpable tumors entry in data set [9] is “no palpable tumors were detected”.

In the case of `CN(CCCCCCCC(F)(F)C(F)(F)F)CCCCCC1Cc2cc(O)ccc2C2C(F)CC3(C)C(CCC3(C)O)C12` (stereo not drawn) [11β-Fluoro-17α-methyl-7α-{5-[methyl(8,8,9,9,9-pentafluorononyl)-amino]pentyl}-estra-1,3,5(10)-triene-3,17β-diol], the bioavailability result in the data set “Bioavailability” was “particularly high bioavailability”.
